Measurements as given in US8501753B2, “Useful pharmaceutical salts of 7-[(3R, 4R)-3-Hydroxy-4-hydroxymethyl-pyrrolidin-1-ylmethyl]-3, 5-dihydro-pyrrolo [3, 2-D] pyrimidin-4-one” (BioCryst Pharmaceuticals, Inc., priority 2009, dated 2013).

Experiment: Water sorption/desorption by dynamic vapor sorption (DVS)
Type: physicochemical
Settings: water sorption/desorption chamber
Source text: Table 4 provides a summary of other solid state data collected for the monohydrate salts of compound 1 described in Examples 33-39. The temperature at which the salts dehydrated per DSC is shown in column 2. The percent weight loss as determined by TGA is shown in column 3; the weight loss approximated theoretical weight loss.

Row | SMILES | Weight gain from 0 to 20% RH from DVS | Weight gain from 0 to 90% RH from DVS
1 | O.O.O=C(O)CC(O)C(=O)O.O=c1[nH]cnc2c(CN3CC(O)C(CO)C3)c[nH]c12.O=c1[nH]cnc2c(CN3CC(O)C(CO)C3)c[nH]c12 [Hemi-L-malate] | 0.87 | 5.68
2 | O.O.O=C(O)CCC(=O)O.O=c1[nH]cnc2c(CN3CC(O)C(CO)C3)c[nH]c12.O=c1[nH]cnc2c(CN3CC(O)C(CO)C3)c[nH]c12 (stereo not shown) [Hemisuccinate] | 5.44 | 6.04
